Data set [1] has as its target T1, PTP1B (Homo sapiens, UniProt P18031).
T1 sequence (P18031 1-435): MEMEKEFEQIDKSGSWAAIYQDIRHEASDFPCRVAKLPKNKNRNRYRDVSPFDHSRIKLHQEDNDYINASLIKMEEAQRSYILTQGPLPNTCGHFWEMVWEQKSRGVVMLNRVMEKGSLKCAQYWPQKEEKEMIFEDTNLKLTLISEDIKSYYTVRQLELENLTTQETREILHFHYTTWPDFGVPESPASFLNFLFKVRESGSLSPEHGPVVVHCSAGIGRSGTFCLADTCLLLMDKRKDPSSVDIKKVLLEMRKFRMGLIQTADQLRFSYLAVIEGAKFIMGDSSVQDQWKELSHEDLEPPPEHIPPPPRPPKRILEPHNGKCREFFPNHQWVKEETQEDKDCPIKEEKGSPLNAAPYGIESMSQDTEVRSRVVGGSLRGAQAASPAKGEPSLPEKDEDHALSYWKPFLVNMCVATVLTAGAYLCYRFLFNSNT
Kind of data set: Enzyme kinetics of PTP1B inhibition. As to conditions: for Inhibition Type: best fit of competitive vs non-competitive model, Lineweaver-Burk; for Ki: non-linear regression of saturation curves at fixed inhibitor concentrations. The data set is classed as biochemical. As to the method: The kinetic studies were carried out under the same conditions described above. Different saturation curves were constructed at fixed inhibitor concentrations. The different inhibitor concentrations were determined based on the previously determined IC50 for each compound. Subsequently, the data obtained were analyzed through a non-linear regression, using OriginPro version 2018 (64-bit) SR1 (Northamton MA, USA, https://www.originlab.com) (accessed on 2 April 2021), adjusting to the following mathematical models:
And non-competitive: y=Vm×s^nh/(1+i/Ki)×S05^nh+(1+i/Ki)×s^nh where Vm is the maximum velocity, S and i are the concentration of substrate and inhibitor, respectively; Ki is the inhibition constant, and nh is the number of Hill.
Additionally, Lineweaver–Burk graphs were constructed to visualize the type of inhibition graphically.

Data set [2] has as its target T1, PTP1B. In words: PTP1B inhibitory assay (pNPP, spectrocolorimetric). It counts as biochemical. Conditions: pNPP substrate; three independent determinations. As to the method:
To test the inhibitory activity of the compounds against PTP1B, a spectrocolorimetric method previously described was employed. The compounds and positive control were dissolved in DMSO or buffer solution [50 mM; Tris-HCI Buffer, pH 6.8], DL-dithiothreitol 1.5 mM, all from Sigma–Aldrich, St. Louis, MO, USA. Aliquots of 0–10 μL of testing compounds (triplicated) were incubated for 10 min at 37 °C with 85 μL of enzyme stock solution (3 μM) in buffer solution. After incubation, 5 μL of the substrate p-nitrophenyl phosphate (pNPP, 0.5 mM, Sigma–Aldrich, St. Louis, MO, USA) were added and incubated a further 25 min at 37 °C; then, the absorbance was recorded at 415 nm.

Experimental findings from paper PMC8308021, “Indole- and Pyrazole-Glycyrrhetinic Acid Derivatives as PTP1B Inhibitors: Synthesis, In Vitro and In Silico Studies” (Molecules, 2021) are described below.

“Also recorded” adds a separate entry of the source.

What is called melting point is the temperature of the solid-liquid transition. The IC50 is the point on the concentration scale where inhibition reaches its midpoint. A lower IC50 goes with inhibition by little substance. Usually Ki stands for the equilibrium dissociation constant of an inhibitor or competing ligand from its target. A higher Ki goes with lower affinity.

In the case of `Cc1ccc(C(=O)Nc2ccc(S(=O)(=O)O)c3cc(S(=O)(=O)O)cc(S(=O)(=O)O)c23)cc1NC(=O)c1cccc(NC(=O)Nc2cccc(C(=O)Nc3cc(C(=O)Nc4ccc(S(=O)(=O)O)c5cc(S(=O)(=O)O)cc(S(=O)(=O)O)c45)ccc3C)c2)c1` [SU, suramin], at PTP1B [1], the “Inhibition Type” value is given as “competitive inhibition; also recorded: competitive inhibitor”.

In the case of `C[C@H]1[C@H](C)CC[C@]2(C(=O)O)CC[C@]3(C)C(=CC[C@@H]4[C@@]5(C)CC[C@H](O)C(C)(C)[C@@H]5CC[C@]43C)[C@H]12` [UA, ursolic acid], the “Inhibition Type” value at PTP1B [1] is listed as “non-competitive inhibition”; at PTP1B [1] (listed as ursolic acid), “non-competitive inhibitor”.

`CC1(C)c2[nH]c3ccccc3c2C[C@@]2(C)C1CC[C@]1(C)C2C(=O)C=C2C3C[C@@](C)(C(=O)O)CC[C@]3(C)CC[C@]21C` (stereo partly drawn) [Compound 4a] gave a melting point of 245 to 248 °C. The same molecule had an IC50 against PTP1B [2] of 6.6 ± 0.13 µM.

As to `CC1(C(=O)O)CCC2(C)CCC3(C)C(=CC(=O)C4C5(C)Cc6c([nH]c7ccc(C(F)(F)F)cc67)C(C)(C)C5CCC43C)C2C1` (stereo not drawn) [Compound 4f], on PTP1B [1], the “Inhibition Type” value is on record as “non-competitive inhibition; also recorded: non-competitive inhibitors” and the Ki turned out to be 3.9 ± 0.5 µM. At PTP1B [2], the IC50 was 2.5 ± 0.03 µM.

The molecule `CC1(C)c2c(cnn2-c2ccc(F)cc2)C[C@@]2(C)C1CC[C@]1(C)C2C(=O)C=C2C3C[C@@](C)(C(=O)O)CC[C@]3(C)CC[C@]21C` (stereo partly drawn) [Compound 5d] had a melting point of 260 to 264 °C. On PTP1B [2], this molecule showed an IC50 of 9.6 ± 0.2 µM.

For `CC1(C)c2c(cnn2-c2ccccc2)C[C@@]2(C)C1CC[C@]1(C)C2C(=O)C=C2C3C[C@@](C)(C(=O)O)CC[C@]3(C)CC[C@]21C` (stereo partly drawn) [Compound 5a], the melting point was in the range of 243 to 245 °C. At PTP1B [2], this molecule registered an IC50 of 5.1 ± 0.56 µM.

For `Cc1ccc(-n2ncc3c2C(C)(C)C2CC[C@]4(C)C(C(=O)C=C5C6C[C@@](C)(C(=O)O)CC[C@]6(C)CC[C@]54C)[C@@]2(C)C3)cc1` (stereo partly drawn) [Compound 5c], at PTP1B [2], half-maximal inhibition (IC50) required 4.8 ± 0.3 µM.

For the molecule `CC1(C)c2[nH]c3ccc(F)cc3c2C[C@@]2(C)C1CC[C@]1(C)C2C(=O)C=C2C3C[C@@](C)(C(=O)O)CC[C@]3(C)CC[C@]21C` (stereo partly drawn) [Compound 4d], the melting point lay in the range of 245 to 248 °C. Further, the IC50 against PTP1B [2] is 5.2 ± 0.22 µM.

`CC1(C)c2[nH]c3ccc(Cl)cc3c2C[C@@]2(C)C1CC[C@]1(C)C2C(=O)C=C2C3C[C@@](C)(C(=O)O)CC[C@]3(C)CC[C@]21C` (stereo partly drawn) [Compound 4e] yielded a melting point of 256 to 258 °C. The same molecule came in with an IC50 against PTP1B [2] of 10.1 ± 0.21 µM.

As for `COc1ccc2[nH]c3c(c2c1)C[C@@]1(C)C(CC[C@]2(C)C1C(=O)C=C1C4C[C@@](C)(C(=O)O)CC[C@]4(C)CC[C@]12C)C3(C)C` (stereo partly drawn) [Compound 4b], the melting point fell in the range of 243 to 244 °C. This molecule gave an IC50 at PTP1B [2] of 4.3 ± 0.26 µM.

Consider `Cc1ccc2[nH]c3c(c2c1)C[C@@]1(C)C(CC[C@]2(C)C1C(=O)C=C1C4C[C@@](C)(C(=O)O)CC[C@]4(C)CC[C@]12C)C3(C)C` (stereo partly drawn) [Compound 4c], for which the melting point was 268 to 271 °C. Also, at PTP1B [2], the IC50 amounted to 8.3 ± 0.1 µM.

Regarding `COc1ccc(-n2ncc3c2C(C)(C)C2CC[C@]4(C)C(C(=O)C=C5C6C[C@@](C)(C(=O)O)CC[C@]6(C)CC[C@]54C)[C@@]2(C)C3)cc1` (stereo partly drawn) [Compound 5b], the melting point fell in the range of 208 to 211 °C. This molecule returned an IC50 against PTP1B [2] of 4.8 ± 0.2 µM.

Regarding `CC1(C)[C@@H](OC(=O)CCC(=O)O)CC[C@]2(C)[C@H]3C(=O)C=C4[C@@H]5C[C@@](C)(C(=O)O)CC[C@]5(C)CC[C@@]4(C)[C@]3(C)CC[C@@H]12` [CA, carbenoxolone, reference compound], the IC50 on PTP1B [2] came to 69.7 ± 6.98 µM.

In turn, `CC1(C(=O)O)CCC2(C)CCC3(C)C(=CC(=O)C4C5(C)Cc6cnn(-c7ccc(C(F)(F)F)cc7)c6C(C)(C)C5CCC43C)C2C1` (stereo not drawn) [Compound 5f] showed a melting point of 270 to 271 °C. At PTP1B [1], the “Inhibition Type” value is on record as “non-competitive inhibition; also recorded: non-competitive inhibitors” and the Ki was 4.6 ± 0.6 µM. Moreover, half-maximal inhibition at PTP1B [2] (IC50) required 4.4 ± 0.07 µM.

`CC1(C)c2c(cnn2-c2ccc(Cl)cc2)C[C@@]2(C)C1CC[C@]1(C)C2C(=O)C=C2C3C[C@@](C)(C(=O)O)CC[C@]3(C)CC[C@]21C` (stereo partly drawn) [Compound 5e]: the melting point was in the range of 263 to 266 °C. This molecule gave an IC50 against PTP1B [2] of 7.5 ± 0.22 µM.

With `CC(C)CCC[C@@H](C)[C@H]1CC[C@H]2[C@@H]3C[C@@H](NCCCNCCCCNCCCN)[C@H]4C[C@@H](O)CC[C@]4(C)[C@H]3CC[C@]12C` [CL, claramine], at PTP1B [1], the “Inhibition Type” value was “non-competitive inhibition” and the affinity corresponds to a Ki of 15.4 ± 1.7 µM. Besides, the IC50 against PTP1B [2] worked out at 13.7 ± 0.11 µM.
